Experimental data published in patent US12624031B2, “Inhibitors of ubiquitin specific peptidase 22 (USP22) and uses thereof for treating diseases and disorders” (Northwestern University, priority 2022, dated 2026).
One block for each compound: values may come before it.

Key:
[1] = target: human GST-USP22 with Sgf11, Sgf73 1-105 and Sus1 (Homo sapiens, UniProt Q9UPT9); assay: in vitro USP22 deubiquitination assay (re-constructed deubiquitination module); format: biochemical; conditions: for IC50: customized deubiquitination assay, human GST-USP22 with Sgf11, Sgf73 1-105, Sus1, read-out: IC50 in suppressing USP22 in vitro catalytic activity
Chain of human GST-USP22 with Sgf11, Sgf73 1-105 and Sus1 (Q9UPT9 whole entry): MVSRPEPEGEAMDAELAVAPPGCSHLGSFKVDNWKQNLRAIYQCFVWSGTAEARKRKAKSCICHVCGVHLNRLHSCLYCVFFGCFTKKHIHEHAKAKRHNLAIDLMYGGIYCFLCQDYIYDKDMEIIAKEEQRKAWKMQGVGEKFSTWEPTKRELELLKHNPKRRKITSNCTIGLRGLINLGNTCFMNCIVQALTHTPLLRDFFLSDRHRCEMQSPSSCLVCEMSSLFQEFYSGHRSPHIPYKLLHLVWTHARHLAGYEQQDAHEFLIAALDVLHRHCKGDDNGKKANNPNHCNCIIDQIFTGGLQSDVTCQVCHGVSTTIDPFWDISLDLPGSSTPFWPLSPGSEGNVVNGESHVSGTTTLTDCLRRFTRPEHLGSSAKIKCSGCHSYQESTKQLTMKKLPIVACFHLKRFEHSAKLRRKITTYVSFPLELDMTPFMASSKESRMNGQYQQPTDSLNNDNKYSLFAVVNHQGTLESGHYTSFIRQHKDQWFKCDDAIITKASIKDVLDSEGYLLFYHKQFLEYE
Chain of human GST-USP22 with Sgf11, Sgf73 1-105 and Sus1 (Q14CW9 whole entry partner): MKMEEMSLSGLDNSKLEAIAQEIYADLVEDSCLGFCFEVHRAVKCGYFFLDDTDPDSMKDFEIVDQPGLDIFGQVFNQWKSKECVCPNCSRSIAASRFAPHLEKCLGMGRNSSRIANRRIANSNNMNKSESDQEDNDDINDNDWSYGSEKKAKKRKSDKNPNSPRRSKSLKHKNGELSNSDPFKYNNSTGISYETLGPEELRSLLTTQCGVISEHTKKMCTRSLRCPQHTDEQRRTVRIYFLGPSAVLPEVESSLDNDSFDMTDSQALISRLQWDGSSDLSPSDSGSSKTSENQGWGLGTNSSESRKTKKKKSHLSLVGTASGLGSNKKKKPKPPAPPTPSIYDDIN
Chain of human GST-USP22 with Sgf11, Sgf73 1-105 and Sus1 (O15265 1-105 partner limits assumed): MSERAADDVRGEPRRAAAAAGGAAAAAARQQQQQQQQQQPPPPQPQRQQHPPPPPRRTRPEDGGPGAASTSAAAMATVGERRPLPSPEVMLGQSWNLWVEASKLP
Chain of human GST-USP22 with Sgf11, Sgf73 1-105 and Sus1 (Q9NPA8 whole entry partner): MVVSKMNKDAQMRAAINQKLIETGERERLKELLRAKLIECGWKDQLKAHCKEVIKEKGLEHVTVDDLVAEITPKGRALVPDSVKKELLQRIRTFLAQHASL
Protocol: (A) The chemical structure of S02-S106 11-((4-cyanophenyl)amino)-7,8,9,10-tetrahydrobenzo(4,5)imidazole[1,2-b]isoquinoline-6-carbonitrile, (B & C) The efficacy of USP22i-S02 analogs in inhibiting USP22 catalytic activity was determined in vitro. The representative data from a triplicate analysis of S02-S106 with S02 as a control are shown (B). The IC50 of USP22i-S02 analogs in suppressing USP22 in vitro catalytic activity are shown (C). NA, not available.
We purchased human recombinant Sgf11 and Sgf73 1-105 and Sus1 proteins from R&D Systems Inc, and re-constructed the deubiquitination activity with our human GST-USP22. The USP22 customized deubiquitination was optimized and used for in vitro screening the activity of synthetic USP22i-s02 analogs with the USP22i-s02 as a control (FIG. 12).

[2] = tested on: polarized CD4+ T-regulatory cells; assay: cytotoxicity in polarized CD4+ T-regulatory cells; format: cell-based, murine; conditions: for cytotoxicity to Tregs: 156 ng/mL to 5 ug/mL, compared to DMSO controls; for toxicity: Example 5, no concentration given
Protocol: FIG. 2: Cytotoxicity of compounds from 156 ng/mL to 5 ug/mL concentration range in polarized CD4+ T-regulatory cells. Murine CD4+ T-cells were isolated and polarized in vitro to T-regulatory cells using 5 ng/mL IL-2, 2 μg/mL anti-IL-4, 2 μg/mL anti-IFNγ, and 1 ng/mL TGFβ. After 48 hours, the inhibitors were added to the cells.
We then synthesized all 17 compounds and validated their cytotoxicity to regulatory T cells. To this end, mouse CD4 T cells were polarized to FoxP3 Tregs for two days, followed by treatment of the cells with each of the compounds at the doses upto 5 ug/ml. […] In addition, the rest of the compounds had poor solubility in DMSO, and were not further tested.

[3] = tested on: FoxP3 expression in CD4+ natural T-regulatory cells; assay: FoxP3 expression in natural T-regulatory cells by flow cytometry; format: cell-based, murine
Protocol: FIGS. 3 and 4: Change in FoxP3 expression in murine CD4+ natural T-regulatory cells. Murine lymphocytes were isolated from the spleens and lymph nodes and cultured with varying concentrations of inhibitor (0.25 μg/mL to 2 μg/mL) or DMSO, anti-CD3, anti-CD28, TGFβ, and IL-2. After two days, lymphocytes were analyzed by flow cytometry for FoxP3 expression in natural T-regulatory (nTregs) gated on CD3+CD4+CD25+FoxP3+. (FIG. 3) Representative histograms of FITC::FoxP3 MFI in nTregs cultured with inhibitors at a concentration of 2 μg/mL. (FIG. 4) Representative plot of FITC::FoxP3 geometric MFI in nTregs across different concentrations of inhibitor.
We then analyzed whether treatment of Tregs with the compounds S106, 107 and 110 inhibits USP22 activity in Tregs as measured by FoxP3 expression levels by flow cytometry.

[4] = tested on: PD-L1 expression in A549 cells; assay: PD-L1 expression in A549 cells by flow cytometry; format: cell-based, human
Protocol: FIG. 13: The effects of USP22i-S02-S106 on suppression of PD-L1 expression on human lung adenocarcinoma cells. Human […] lung adenocarcinoma A549 cells were treated with S02-S106 or its lead compound S02 for 48 hours. The expression levels of PD-L1 were determined by flow cytometry. (A) Representative flow data from A549 cells treated with 2 μM S02-S106 or with 15 μM S02 are shown. DMSO treated cells were used as an untreated control and USP22 CRISPR knockout A549 cells were used as a positive control. (B) The dose-dependent inhibition of PD-L1 expression in A549 cells by S02-S106 with USP22i-S02 as a control. Data were normalized with PD-L1 expression levels in USP22-KO cells as 100% of USP22 inhibition as shown in A. (C) Inhibition of PD-L1 expression in WT and USP22-null A549 cells by S02-S106.
We then used PD-L1 expression level as a measurement to evaluate the inhibitory efficacy of USP22 by S02-S106.
To determine the specificity of USP22i-S02-S106, we treated the WT and USP22-null lung cancer cells.

IC50 [1]: 600 nM
improvement of USP22i-S02 inhibitory activity ([1]; cyano group at R1 position of E ring, versus USP22i-S02): at least 8 folds
USP22 inhibitory activity relative to USP22i-S02 ([1]; in vitro deubiquitination assay): most potent USP22 inhibitory activity
improvement of inhibitory efficacy ([1]; versus S02, in vitro and cell-based studies collectively): 4-8 folds
IC50 ([4]; Homo sapiens, A549 cells, 48 hours, read-out: IC50 inhibition of PD-L1 expression): ~3200 nM
Compound: N#Cc1ccc(Nc2c3c(c(C#N)c4nc5ccccc5n24)CCCC3)cc1 [Compound S02-S106, 11-((4-cyanophenyl)amino)-7,8,9,10-tetrahydrobenzo(4,5)imidazole[1,2-b]isoquinoline-6-carbonitrile]
cytotoxicity to Tregs [2]: least cytotoxicity
toxicity [2]: without increasing its toxicity
toxicity ([2]; listed as USP22i-S02-S106): without increasing the cytotoxicity
decrease of FoxP3 expression in nTregs ([3]; 2 μg/mL, two days): higher efficacy compared to usp22i-s02
FoxP3 expression levels in Tregs ([3]; concentration of 1-2 ug): dose dependently reduced
efficacy in suppressing PD-L1 expression ([4]; A549 cells, S02-S106 at 2 μM versus S02 at 15 μM): better efficacy than S02 at 15 μM
PD-L1 expression in USP22-null A549 cells ([4]; USP22-null A549 cells): did not further reduce PD-L1 expression
PD-L1 expression in WT A549 cells ([4]; WT A549 cells): dramatically inhibited PD-L1 expression to a level comparable to that of USP22-null A549 cells

IC50 [1]: 300 nM
Compound: N#Cc1c2c(c(Nc3ccc(CN)cc3)n3c1nc1ccccc13)CCCC2 [Compound S02-S113, (11-((4-aminomethyl)phenyl)amino)-7,8,9,10-tetrahydrobenzo(4,5)imidazole[1,2-b]isoquinoline-6-carbonitrile]
cytotoxicity to Tregs [2]: modest toxicity
toxicity [2]: highly toxic

Compound: Cn1c2nc3ccccc3c-2c(Nc2ccccc2)c2ccccc21 [Compound S201, N5-methyl-N-phenyl-5H-indolo[2,3-b]quinolin-11-amine]
cytotoxicity to Tregs [2]: extremely toxic

Compound: N,5-dimethyl-5H-indolo[2,3-b]quinolin-11-amine compound with anisole [Compound S202]
cytotoxicity to Tregs [2]: extremely toxic
